US20260217701A1, “SELECTIVE BET INHIBITORS AND USES THEREOF” (Tay Therapeutics Limited, priority 2022, published 2026)
pIC50: −log10 of the molar value. Where “and” joins values, the source holds several entries; their conditions need not be identical. Equal entries are not always repeated. Where two headings read alike, the source gives them in different places.

Tests used:
IL-17A = IL-17A release from activated human PBMCs (ELISA); assay type: cell-based
Experimental: Human PBMCs used to analyze inhibition of CXCL10 were collected from 8 donors, PBMCs used to analyze inhibition of IL-17A were collected from 7 donors, and PBMCs used to analyze inhibition of IL-22 were collected from 6 donors. Compounds were serially diluted in 10 mM DMSO and further diluted in assay media to 100× the required final concentration, of which 2 μL was added to the specified well. […] The cell culture supernatant was collected and levels of IL-17A and IL-22 in the supernatant were assessed by ELISA (Invitrogen).

lupus = assay: SLE (lupus) model: kidney and spleen weight; assay type: in vivo, MRL/MpJ-Faslpr mice; conditions: Week 19
Experimental: Female MRL/MpJ-Faslpr mice (The Jackson Laboratory) were used to assess the efficacy of Compound A in treating lupus. Starting when animals were 10 weeks of age, protein concentration in urine was measured using urine dipsticks.
At the start of the study, each group in the study had two animals that were 9 weeks old, and all others were 10 weeks old. Dosing of all animals with the test compounds began when the older animals were 11 weeks old. […] […] Dosing was at a consistent time each dosing day throughout the study.
Compound A may be formulated as illustrated in Experimental Method A (see Table 2E.). […] A stock solution of Compound A in DMSO (stock solution concentration of Compound A of 40 mg/mL) was prepared and aliquots for weekly preparations were frozen at −20° C. On each preparation day, a stock solution aliquot was thawed and diluted with other vehicle components to the desired concentration. Formulated Compound A and vehicle were at room temperature for dosing.
The study began when the older animals were 11 weeks old, and concluded when the older animals were 19 weeks old. Body weight was recorded once a week, with the exception of two weight measurements taken the first week of the study (when the older animals were 11 weeks old). Proteinuria was measured in the urine of animals with urine dipsticks once a week, starting when the older animals were 10 weeks old. […] Blood samples were taken retro-orbitally at the start of the study to establish a baseline (15 animals, 3 per group), and when the older animals were 16 weeks (all animals) and when animals were 19 weeks (all animals) at the conclusion of the study. Blood urea nitrogen (BUN) was measured in all animals at study termination in blood samples. After blood collection, animals were euthanized, perfused with PBS, and the left kidneys were collected and weighed and fixed in 10% buffered formalin. Left kidneys were then processed to a formalin-fixed, paraffin-embedded (FFPE) block, and histology was analyzed in Periodic Acid-Schiff-stained sections (1 section per slide), using the criteria described in Alperovich et al., Lupus, 16:18-24 (2007). Right kidneys were weighed and snap-frozen at −80° C. Spleens were also collected and weighed. SLE in animals treated with a BET inhibitor and vehicle.

[1] = CIA study: pharmacokinetics / plasma concentration after oral administration; assay type: in vivo, Lewis rats; conditions: for concentration at 21 day: oral
[2] = CIA-induced animals, day 0, 3 mg/kg, average
[3] = CIA-induced animals, day 0, 3 mg/kg, individual test subjects
[4] = CIA-induced animals, day 21, 3 mg/kg, average
[5] = CIA-induced animals, day 21, 3 mg/kg, individual test subjects

Cn1cc(-c2ccccc2)c(-c2cn(C)c(=O)c3[nH]c(-c4cnn(C(F)(F)F)c4)cc23)cc1=O [Compound A, 6-methyl-4-(1-methyl-2-oxo-5-phenyl-1,2-dihydropyridin-4-yl)-2-(1-(trifluoromethyl)-1H-pyrazol-4-yl)-1,6-dihydro-7H-pyrrolo[2,3-c]pyridin-7-one]
potency against IL-17A relative to CXCL10 (IL-17A): about 13,000 fold
Biomarker selectivity (IL-17 vs. CXCL10) (IL-17A; Average preliminary biomarker assay): 3492 Fold
Percent Inhibition Relative to Control (IL-17A) (IL-17A; Compound Conc. 0.000137174 μM, Donors 1-7, two values per donor): 30.76% and 39.93% and 12.53% and 17.16% and 22.57% and 38.63% and 4.46% and 42.02% and 55.02* Percent and 40.50% and 25.91% and 19.06% and 25.23% and 32.91%
Percent Inhibition Relative to Control (IL-17A) (IL-17A; Compound Conc. 0.000411523 μM, Donors 1-7, two values per donor): 42.92% and 60.88% and 49.48% and 23.24% and 46.54% and 52.23% and 60.62% and 51.01% and 51.11% and 62.34% and 51.68% and 47.46% and 28.29% and 56.37%
Percent Inhibition Relative to Control (IL-17A) (IL-17A; Compound Conc. 0.001234568 μM, Donors 1-7, two values per donor): 56.92% and 75.17% and 53.28% and 57.9% and 62.54% and 63.56% and 62.80% and 67.54% and 70.18% and 58.60% and 66.13% and 59.19% and 60.91% and 75.98%
Percent Inhibition Relative to Control (IL-17A) (IL-17A; Compound Conc. 0.011111111 μM, Donors 1-7, two values per donor): 75.17% and 74.77% and 72.8%
Percent Inhibition Relative to Control (IL-17A) (IL-17A; Compound Conc. 0.033333333 μM, Donors 1-7, two values per donor): 76.69% and 83.98% and 75.68% and 76.46% and 73.03% and 78.96% and 78.00% and 81.52% and 83.08% and 69.43% and 73.08% and 77.7% and 78.81% and 89.99%
Percent Inhibition Relative to Control (IL-17A) (IL-17A; Compound Conc. 0.1 μM, Donors 1-7, two values per donor): 80.29% and 80.05% and 78.2% and 79.86% and 80.34% and 80.42% and 83.72% and 86.56% and 80.96% and 85.39% and 77.87% and 84.04% and 85%
Percent Inhibition Relative to Control (IL-17A) (IL-17A; Compound Conc. 1.52416E−05 μM, Donors 1-7, two values per donor): −2.11% and 5.95% and 4.5% and 4.36% and −0.57% and 6.2% and −11.47% and 18.94% and 28.57% and 13.94% and 37.95% and −8.34% and 0.61% and 18.05%
Percent Inhibition Relative to Control (IL-17A) (IL-17A; Compound Conc. 4.57247E−05 μM, Donors 1-7, two values per donor): −1.00% and 28.73% and 7.45% and 18.97% and 13.64% and 16.93% and −0.28% and 32.68% and 27.06% and 28.89% and 20.58% and 2.83% and 7.11% and 42.94%
pIC50 (IL-17A; Homo sapiens, PBMC, Average preliminary biomarker assay, read-out: IL-17A IC50 Mean): 9.52
inhibition at 0.1 µM (IL-17A; Homo sapiens, PBMC, Compound Conc. 0.1 μM, Donors 1-7, two values per donor, read-out: Percent Inhibition Relative to Control (IL-17A)): 80.8%
pIC50 (IL-17A; Homo sapiens, PBMC, Preliminary biomarker assay, Test Subject 1, read-out: IL-17A IC50): 9.70
pIC50 (IL-17A; Homo sapiens, PBMC, Preliminary biomarker assay, Test Subject 2, read-out: IL-17A IC50): 9.52
pIC50 (IL-17A; Homo sapiens, PBMC, Preliminary biomarker assay, Test Subject 3, read-out: IL-17A IC50): 9.40
pIC50 (IL-17A; Homo sapiens, PBMC, ELISA, read-out: Selectivity (IC50) IL-17A): 9.57
IC50, inhibition of release of IL-17A (IL-17A; human PBMCs, 72 hours): sub-nanomolar
effectiveness relative to GSK620 in reducing IL-17A, IL-22 and CXCL10 (IL-17A; preliminary biomarker assays): more effective than GSK620
Mean Kidney Weight (lupus; Compound A 1 mg/kg PO QD): 245 mg
Mean Spleen Weight (lupus; Compound A 1 mg/kg PO QD): 241 mg
Mean Kidney Weight (lupus; Compound A 3 mg/kg PO QD): 245 mg
Mean Spleen Weight (lupus; Compound A 3 mg/kg PO QD): 361 mg
Mean Kidney Weight (lupus; Compound A 10 mg/kg PO QD): 225 mg
Mean Spleen Weight (lupus; Compound A 10 mg/kg PO QD): 170 mg
Kidney weights relative to controls (lupus; Compound A (10 mg/kg) and cyclophosphamide groups): slightly decreased kidney weights
Spleen weights relative to vehicle controls (lupus; Compound A (all tested doses) and cyclophosphamide): decreased spleen weights
AUClast/D (Mean) [1, 2]: 509 mg·h/mL
AUC—%Extrap—obs (Mean) [1, 2]: 14.0%
AUCInf [1, 3]: 1393 ng·h/mL and 1454 ng·h/mL
AUClast [1, 3]: 1250 ng·h/mL and 1264 ng·h/mL
AUC—%Extrap—obs [1, 3]: 18.6% and 10.3% and 13.1%
Cmax [1, 3]: 77.9 ng/mL and 82.6 ng/mL
MRTInf—obs [1, 3]: 10.7 h and 11.8 h
T1/2 [1, 3]: 7.03 h and 7.60 h
AUClast/D (Mean) [1, 4]: 246 mg·h/mL
AUC—%Extrap—obs (Mean) [1, 4]: 17.3%
MRTlnf—obs (Mean) [1, 4]: 13.5 h
AUCInf [1, 5]: 1059 ng·h/mL and 985 ng·h/mL
AUClast [1, 5]: 826 ng·h/mL and 784 ng·h/mL
AUC—%Extrap—obs [1, 5]: 9.67% and 22.0% and 20.4%
Cmax [1, 5]: 51.2 ng/mL and 45.7 ng/mL
MRTInf—obs [1, 5]: 15.5 h and 14.9 h
T1/2 [1, 5]: 10.3 h and 9.68 h
Plasma Concentration ([1]; Day 21, CIA rats, 1 mg/kg): 12.8 ng/mL and 14.5 ng/mL and 13.9 ng/mL and 14.3 ng/mL and 21.1 ng/mL and 20.6 ng/mL
Plasma Concentration ([1]; Day 21, CIA rats, 10 mg/kg): 181 ng/mL and 240 ng/mL and 230 ng/mL and 264 ng/mL and 174 ng/mL and 255 ng/mL and 248 ng/mL
concentration at 21 day ([1]; Lewis, rat, plasma, 1 mg/kg, Day 21, CIA rats, 1 mg/kg, read-out: Plasma Concentration): 13 ng/mL
concentration at 21 day ([1]; Lewis, rat, plasma, 1 mg/kg, Group 5 (CIA + Compound A 1 mg/kg), read-out: Day 21 Mean Plasma Concentration): 15.5 ng/mL
concentration at 21 day ([1]; Lewis, rat, plasma, 3 mg/kg, Group 6 (CIA + Compound A 3 mg/kg), read-out: Day 21 Mean Plasma Concentration): 49.5 ng/mL
concentration at 21 day ([1]; Lewis, rat, plasma, 10 mg/kg, Day 21, CIA rats, 10 mg/kg, read-out: Plasma Concentration): 232 ng/mL
concentration at 21 day ([1]; Lewis, rat, plasma, 10 mg/kg, Group 7 (CIA + Compound A 10 mg/kg), read-out: Day 21 Mean Plasma Concentration): 221 ng/mL
AUC(0-inf) ([1]; Lewis, rat, plasma, po, 3 mg/kg, CIA-induced animals, day 0, 3 mg/kg, average, read-out: AUCInf (Mean)): 1800 ng·h/mL
AUC(0-t) ([1]; Lewis, rat, plasma, po, 3 mg/kg, CIA-induced animals, day 0, 3 mg/kg, average, read-out: AUClast (Mean)): 1530 ng·h/mL
Cmax ([1]; Lewis, rat, plasma, po, 3 mg/kg, CIA-induced animals, day 0, 3 mg/kg, average, read-out: Cmax (Mean)): 95 ng/mL
MRT inf ([1]; Lewis, rat, plasma, po, 3 mg/kg, CIA-induced animals, day 0, 3 mg/kg, average, read-out: MRTInf—obs (Mean)): 12.2 h
half-life ([1]; Lewis, rat, plasma, po, 3 mg/kg, CIA-induced animals, day 0, 3 mg/kg, average, read-out: T1/2 (Mean) (converted)): 7.94 h
Tmax ([1]; Lewis, rat, plasma, po, 3 mg/kg, CIA-induced animals, day 0, 3 mg/kg, average, read-out: Tmax (Mean)): 5.33 h
AUC(0-inf) ([1]; Lewis, rat, plasma, po, 3 mg/kg, CIA-induced animals, day 0, 3 mg/kg, individual test subjects, read-out: AUCInf): 2540 ng·h/mL
AUC(0-t) ([1]; Lewis, rat, plasma, po, 3 mg/kg, CIA-induced animals, day 0, 3 mg/kg, individual test subjects, read-out: AUClast): 2070 ng·h/mL
